Reference: PubChem BioAssay (NCI)
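Exposure lasted 48 hours, with cells grown in 96-well plates and compounds tested at five concentrations. TGI marks complete inhibition of growth.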 Where a SMILES comes first, the peptide text is derived from it. The star is where a group is joined. Boc = CC(C)(C)OC(=O)*

What was measured:
Experiment in all cases: inhibition of tumour cell growth, NCI panel, 48 h
A549 NSCLC = system: A549 NSCLC
DU-145 prostate = system: DU-145 prostate
HCT-116 colon = system: HCT-116 colon
HCT-15 colon = system: HCT-15 colon
HL-60(TB) leukemia = system: HL-60(TB) leukemia
HT29 colon = system: HT29 colon
M14 melanoma = system: M14 melanoma
MDA-MB-231 breast = system: MDA-MB-231 breast
MOLT-4 leukemia = system: MOLT-4 leukemia
OVCAR-8 ovarian = system: OVCAR-8 ovarian
SF-539 CNS = system: SF-539 CNS
SK-MEL-5 melanoma = system: SK-MEL-5 melanoma
SNB-19 CNS = system: SNB-19 CNS
T-47D breast = system: T-47D breast
OVCAR-3 ovarian = system: OVCAR-3 ovarian
RXF 393 renal = system: RXF 393 renal

Row | SMILES | TGI (A549 NSCLC) [µM] | TGI (DU-145 prostate) [µM] | TGI (HCT-116 colon) [µM] | TGI (HCT-15 colon) [µM] | TGI (HL-60(TB) leukemia) [µM] | TGI (HT29 colon) [µM] | TGI (M14 melanoma) [µM] | TGI (MDA-MB-231 breast) [µM] | TGI (MOLT-4 leukemia) [µM] | TGI (OVCAR-8 ovarian) [µM] | TGI (SF-539 CNS) [µM] | TGI (SK-MEL-5 melanoma) [µM] | TGI (SNB-19 CNS) [µM] | TGI (T-47D breast) [µM] | TGI (OVCAR-3 ovarian) [µM] | TGI (RXF 393 renal) [µM]
1 | CC1=NC(=Cc2cccc(Cl)c2)C(=O)N1n1c(-c2ccccc2)nc2ccccc2c1=O | > 100 | > 100 | > 100 | > 100 | 61.6 | 94.8 | > 100 | > 100 | 98.3 | > 100 | > 100 | > 100 | > 100 | 69 |  | 
2 | COc1cccc(OC)c1C(=O)OCc1ccccc1 | > 100 |  | > 100 | > 100 | > 100 | > 100 | > 100 |  | > 100 | > 100 | > 100 | > 100 |  |  | > 100 | > 100
3 | COC1/C=C/C(C)C(C(C)C(OC)C(C)CCC(=O)C(C)C(C/C=C/N(C)C=O)OC)OC(=O)C=CC2OC2(C)CC(OC)C(OC)C2=CC(=O)O[C@@H](C(C)C(OC)CC(OC)/C=C/C(C)C(O)C1)[C@H]2O (stereo partly drawn) | 0.0384 | 0.199 | 0.00596 |  | 0.0785 | 0.0108 | 0.00985 | 0.0197 |  |  | 0.00742 | 0.0284 | 0.0316 |  | 0.0341 | 0.0473
4 | CCn1c2ccccc2c2ccc3c(c21)C(=O)C=CC3=O | > 100 |  | 15.4 | 25.7 | 12.9 | 42.1 | 14.9 |  | 17.2 | 29 | 44 |  |  |  | 26.6 | 
5 | COc1cc2c(c(OC)c1)/C(=C/Sc1ccccc1)C(=O)N(C(C)(C)C)C2 |  | > 100 | 40.2 | 91.9 | 59.9 | 75.1 |  | 64.4 | > 100 | 79.6 | > 100 | 36.2 |  | > 100 | 53.2 | 
6 | CN(C)c1ccc(NN=C2SC(=Nc3ccccc3)C(=Nc3ccccc3)S2)cc1 | > 100 | > 100 | > 100 | > 100 | > 100 | > 100 |  |  | > 100 | > 100 | > 100 | > 100 | > 100 | > 100 |  | > 100
7 | CCCCCCCOc1ccc(/C=C\c2cc[n+](CCCCCCCC[n+]3ccc(/C=C\c4ccc(OCCCCCCC)cc4)cc3)cc2)cc1 | 41.5 |  | 26.5 | 34.1 | > 100 | 28.7 | 34.5 |  | 62.2 | 55.5 | > 100 | 27.7 | > 100 |  | 33.1 | > 100
8 | NC(N)=NCCCC(NC(=O)c1cccc2c(=O)c3ccccc3[nH]c12)C(=O)O (stereo not drawn) | > 100 | > 100 | > 100 | > 100 | > 100 | > 100 | > 100 | > 100 | > 100 | > 100 |  | > 100 | > 100 |  | > 100 | 
9 | COc1cccc(NC(=O)CSc2nnc(-c3ccc(NC(C)=O)cc3)o2)c1 | > 100 |  | > 100 | > 100 | > 100 | > 100 | > 100 |  | > 100 | > 100 |  | > 100 |  |  | > 100 | > 100
10 | CC(C)(C)OC(=O)NC(Cc1ccc(O)cc1)C(=O)N1CCCC1C(=O)O (stereo not drawn) (Boc-Tyr-Pro-OH; configuration not given here) | > 100 |  | > 100 | > 100 | > 100 | > 100 | > 100 |  | > 100 | > 100 | > 100 | > 100 | > 100 |  | > 100 | > 100
11 | CCN1CCC(C)OP1(=O)Cc1ccccc1 (stereo not drawn) | > 100 | > 100 | > 100 | > 100 |  | > 100 | > 100 | > 100 |  | > 100 | > 100 | > 100 | > 100 | > 100 | > 100 | 
12 | C/C=C1\CN2CCc3c([nH]c4ccccc34)C2CC1C(=O)OC (stereo not drawn) | > 322 |  | > 322 | > 322 | > 32.2 | > 322 |  |  | > 322 | > 322 | > 322 | > 322 | > 322 |  | > 322 | > 322
13 | CC(=O)NC(CCCNC(=O)N(CCCl)N=O)C(=O)NCc1ccccc1 (stereo not drawn) | > 100 |  | > 100 | > 100 | > 100 | > 100 | > 100 |  | > 100 | > 100 | 69.6 |  | > 100 |  | > 100 | > 100
14 | CCN1C(=O)c2cc(OC)c(OC)cc2C(=O)C12OC(=O)c1cc3c(cc12)OCO3 (stereo not drawn) | > 100 | 88.4 | > 100 | > 100 |  | > 100 | > 100 | > 100 | > 100 | > 100 | > 100 | > 100 | > 100 |  | > 100 | 72.9
15 | CC1(C)C=Cc2c(cc(O)c3c(=O)c4cc(Cl)ccc4[nH]c23)O1 | > 10 |  | > 10 | > 10 | 6.6 | > 10 |  | > 10 | 8.22 | > 10 | > 10 | 6.33 | 6.4 | > 10 | 3.01 | > 10
16 | Cn1c(=O)c2c(nc3n2CC(=O)N3CCCCl)n(C)c1=O | > 100 | > 100 | > 100 | > 100 | > 100 | > 100 | > 100 | > 100 | > 100 | > 100 |  | > 100 | > 100 | > 100 | > 100 | 
17 | CCOC(=O)/C(C=Nc1c(C)n(C)n(-c2ccccc2)c1=O)=C(/C)O | > 100 | > 100 | > 100 | > 100 | > 100 |  | > 100 | > 100 | > 100 | > 100 | > 100 | > 100 |  |  | > 100 | > 100

Row | SMILES | TGI (A549 NSCLC) [µM] | TGI (DU-145 prostate) [µM] | TGI (HCT-116 colon) [µM] | TGI (HCT-15 colon) [µM] | TGI (HL-60(TB) leukemia) [µM] | TGI (HT29 colon) [µM] | TGI (M14 melanoma) [µM] | TGI (MDA-MB-231 breast) [µM] | TGI (MOLT-4 leukemia) [µM] | TGI (OVCAR-8 ovarian) [µM] | TGI (SF-539 CNS) [µM] | TGI (SK-MEL-5 melanoma) [µM] | TGI (SNB-19 CNS) [µM] | TGI (T-47D breast) [µM] | TGI (OVCAR-3 ovarian) [µM] | TGI (RXF 393 renal) [µM]
18 | CCC(C=O)P1(=O)OC(C)(C)CN1C(C)(C)C (stereo not drawn) | > 100 | > 100 | > 100 | > 100 |  | > 100 | > 100 | > 100 |  | > 100 | > 100 | > 100 | > 100 | > 100 | 81.3 | 
19 | COC(=O)[C@H](CCSC)NC(=O)N[C@H](C)c1ccccc1 | > 100 | > 100 | > 100 | > 100 | > 100 | > 100 | > 100 | > 100 | > 100 | > 100 | > 100 | > 100 | > 100 |  | > 100 | 
20 | C[N+](C)(C)CCc1ccccc1 | > 100 |  | > 100 | > 100 | > 100 | > 100 | > 100 |  | > 100 | > 100 | > 100 | > 100 | > 100 |  | > 100 | > 100
21 | O=[N+]([O-])c1cccc2nnccc12 | > 100 | > 100 | 29.4 | 28.3 | 14.4 | 53.6 | > 100 |  | > 100 | > 100 | > 100 | 27 | 87.1 | > 100 |  | > 100
22 | c1ccc2c(c1)C1CCCCCC21N1CCOCC1 (stereo not drawn) | > 100 |  | > 100 | > 100 | > 100 | > 100 | > 100 |  | > 100 | > 100 | > 100 | > 100 | > 100 |  | > 100 | > 100
23 | COc1ccc2c(c1)C(=O)C1CC(=O)CCC21 (stereo not drawn) | > 100 |  | > 100 | > 100 | > 100 | > 100 | > 100 |  | > 100 | > 100 | > 100 | > 100 | > 100 |  | > 100 | 
24 | COc1ccc(CC2(O)C3CC4CCC2C4C3)cc1 (stereo not drawn) | > 100 |  |  | > 100 | > 100 | > 100 | > 100 |  | > 100 | > 100 |  | > 100 | > 100 |  | > 100 | 
25 | CC(=O)CN(Cc1cc(C)c2c(c1)c1ccccc1n2Cc1ccccc1)S(=O)(=O)c1ccc(C)cc1 | > 100 |  | > 100 |  | > 100 | > 100 | > 100 |  | > 100 | > 100 | > 100 | > 100 | > 100 |  | > 100 | 
26 | CCOC(=O)c1c(C)nc2c1c(CN(C)C)c(O)c1[nH]c(C)c(C)nc12 | > 100 | > 100 | 42.8 | > 100 | 25.2 | 81.6 | > 100 |  | 85.6 | 60.4 | 49.5 | 29.1 | > 100 | 74.1 | 85.7 | 65.7
27 | O=C(NC1CCCCC1NC(c1ccccc1)(c1ccccc1)c1ccccc1)C(=O)NC1CCCCC1NC(c1ccccc1)(c1ccccc1)c1ccccc1 (stereo not drawn) | > 100 | > 100 | > 100 | > 100 | > 100 | > 100 |  | > 100 | > 100 | > 100 | > 100 | > 100 | > 100 | > 100 | > 100 | 
28 | O=C(CSc1nnc(Cc2ccccc2)o1)Nc1ccccc1 | > 100 |  | > 100 | > 100 | > 100 | > 100 | > 100 |  | > 100 | > 100 | > 100 | > 100 |  |  | > 100 | > 100
29 | CC1(C)OC(=O)C(C#N)=C1/C=C/c1coc2ccc(Cl)cc2c1=O | > 100 |  | > 100 | 87.2 |  |  | > 100 |  | 94.1 | 74.6 |  | 53.5 | > 100 |  | 46.2 | 
30 | COc1cc(C2SCC(=O)N2c2cccc(Cl)c2)cc(OC)c1OC (stereo not drawn) | > 100 | > 100 | > 100 | > 100 | > 100 | > 100 | > 100 | > 100 | > 100 | > 100 | > 100 | > 100 | > 100 |  |  | 
31 | CCC(CCCN)Nc1cc(OC)cc2c(C)ccnc12 (stereo not drawn) | 29.2 | 35.5 | 37.2 | 58.4 | 27.7 | 28.6 | 29.3 | 28.5 | 40 | 42.2 | 33.4 | 31.6 | 27.9 |  | 34.7 | 27
32 | O=S1(=O)OCCOS(=O)(=O)C1(F)Br | > 100 | > 100 | > 100 | > 100 | > 100 | > 100 | > 100 |  | > 100 | > 100 | > 100 | > 100 | > 100 | > 100 | > 100 | > 100
33 | CSc1nc2c(c(=O)[nH]1)N=C(c1ccc([N+](=O)[O-])cc1)CC(c1ccccc1)N2 (stereo not drawn) | > 100 | > 100 | 47.1 |  | 39.7 | 48 | > 100 | 78.8 | > 100 | > 100 | 76.2 | 55.6 | > 100 |  | > 100 | > 100
34 | CO/C(=N\N=C\c1ccc(OC)c(OC)c1)c1ccncc1 | > 10 | > 10 |  | > 10 | > 10 |  | > 10 | > 10 | > 10 | > 10 | > 10 | > 10 |  | > 10 |  | 
